Reference: patent US10406146B2, “Heterocyclic compound” (TAKEDA PHARMACEUTICAL COMPANY LIMITED, priority 2015, dated 2019)

How the values were obtained:
Format in all cases: biochemical
HDAC9 enzyme = target: T1, HDAC9 enzyme (Homo sapiens, UniProt Q9UKV0); experiment: HDAC9 enzyme inhibitory assay (HDAC-Glo class IIa); settings: wells without enzyme = 100% inhibition; for inhibition at 1 µM: read-out: HDAC9 inhibitory rate (%) (1 μM)
T1 construct: transducing full length HDAC9 gene into Sf-9 insect cells; made in house; host or cells: Sf-9 insect cells
T1 sequence (Q9UKV0 whole entry, species assumed): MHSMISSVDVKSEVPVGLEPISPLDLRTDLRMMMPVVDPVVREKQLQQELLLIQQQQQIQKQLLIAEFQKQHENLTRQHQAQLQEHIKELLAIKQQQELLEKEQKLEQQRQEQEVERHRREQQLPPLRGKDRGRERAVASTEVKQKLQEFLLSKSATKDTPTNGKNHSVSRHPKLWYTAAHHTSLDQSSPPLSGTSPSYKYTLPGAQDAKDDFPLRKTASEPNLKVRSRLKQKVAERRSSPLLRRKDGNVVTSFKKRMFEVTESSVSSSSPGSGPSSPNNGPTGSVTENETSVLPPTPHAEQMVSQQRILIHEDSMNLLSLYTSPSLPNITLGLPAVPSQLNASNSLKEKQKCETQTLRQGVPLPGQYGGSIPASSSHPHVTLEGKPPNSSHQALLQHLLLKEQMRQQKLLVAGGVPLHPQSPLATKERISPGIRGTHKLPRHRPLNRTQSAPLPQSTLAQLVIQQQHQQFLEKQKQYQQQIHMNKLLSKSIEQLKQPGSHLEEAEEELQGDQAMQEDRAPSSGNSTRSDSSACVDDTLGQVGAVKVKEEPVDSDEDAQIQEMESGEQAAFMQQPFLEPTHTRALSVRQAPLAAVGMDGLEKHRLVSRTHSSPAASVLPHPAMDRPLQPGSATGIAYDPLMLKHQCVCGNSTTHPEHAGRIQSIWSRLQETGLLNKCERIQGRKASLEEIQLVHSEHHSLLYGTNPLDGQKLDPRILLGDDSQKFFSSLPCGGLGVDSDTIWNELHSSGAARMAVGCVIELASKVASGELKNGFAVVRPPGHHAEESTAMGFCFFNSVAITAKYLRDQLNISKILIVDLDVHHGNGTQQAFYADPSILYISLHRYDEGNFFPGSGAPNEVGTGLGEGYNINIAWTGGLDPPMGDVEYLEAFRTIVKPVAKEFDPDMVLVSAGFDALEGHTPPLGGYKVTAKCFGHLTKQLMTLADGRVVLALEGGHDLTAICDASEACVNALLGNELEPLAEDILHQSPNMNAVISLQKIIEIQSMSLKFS
Procedure: HDAC9 Enzyme Inhibitory Assay
Enzyme was prepared by transducing full length HDAC9 gene into Sf-9 insect cells and purifying by Ni-NTA affinity column, and HDAC9 enzyme inhibitory activity was evaluated. Enzymes were used after preserved at −70° C. HDAC9 enzyme inhibitory activity of the test compound was measured using HDAC-Glo class IIa (Promega) according to the following experimental method. The test compound diluted with assay buffer (24 mM Tris-HCl (pH 7.5), 1 mM MgCl2, 0.35 mM KCl, 135 mM NaCl, 0.6 mM Glutathione, 0.01% Tween-20) was added to a 384-well plate by each 2 μL. Then, HDAC9 enzyme solution diluted with assay buffer was added thereto by each 2 μL, and the plate was incubated at room temperature for 60 min. After incubated, HDAC substrate-Developer solution prepared according to Promega protocol was added to the 384-well plate by each 4 μL, and the enzyme reaction was started. After reacting at room temperature for 20 min, luminescence level was measured using plate reader Envision (PerkinElmer). The inhibitory activity of each compound was calculated as a relative activity value when luminescence level in wells without enzyme is considered as 100% inhibition.

HDAC1 enzyme = target: T2, HDAC1 enzyme (Homo sapiens, UniProt Q13547); experiment: HDAC1 enzyme inhibitory assay (HDAC-Glo I/II Assay kit); settings: wells without enzyme = 100% inhibition; for inhibition at 1 µM: read-out: HDAC1 inhibitory rate (%) (1 μM)
T2 construct: transducing full length HDAC1 and HDAC6 genes into Sf-9 insect cells; GST; purchased SignalChem; host or cells: Sf-9 insect cells
T2 sequence (Q13547 whole entry): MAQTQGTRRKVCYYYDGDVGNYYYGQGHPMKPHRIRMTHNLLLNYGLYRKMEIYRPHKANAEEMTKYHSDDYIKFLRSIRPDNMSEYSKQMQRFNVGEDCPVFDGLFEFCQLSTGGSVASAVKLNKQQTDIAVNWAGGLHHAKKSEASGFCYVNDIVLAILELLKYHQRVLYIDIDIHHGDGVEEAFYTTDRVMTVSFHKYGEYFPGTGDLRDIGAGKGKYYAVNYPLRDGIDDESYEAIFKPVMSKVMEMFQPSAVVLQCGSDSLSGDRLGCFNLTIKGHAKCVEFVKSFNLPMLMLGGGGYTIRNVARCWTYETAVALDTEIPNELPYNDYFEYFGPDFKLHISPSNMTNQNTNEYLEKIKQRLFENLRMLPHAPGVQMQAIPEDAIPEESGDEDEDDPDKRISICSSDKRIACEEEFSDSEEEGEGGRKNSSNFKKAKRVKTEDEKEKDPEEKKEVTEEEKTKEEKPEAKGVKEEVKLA
Procedure: (§1) HDAC1/6 Enzyme Inhibitory Assay
(§2) HDAC1 enzyme and HDAC6 enzyme each prepared by transducing full length HDAC1 and HDAC6 genes into Sf-9 insect cells and purifying by GST affinity column were purchased from SignalChem. Using these enzymes, HDAC1 and/or HDAC6 enzyme inhibitory activities of the compound of the present invention were evaluated. Enzymes were used after preserved at −70° C. HDAC1 or HDAC6 enzyme inhibitory activity of the compound of the present invention was measured using HDAC-Glo™ I/II Assay kit (Promega) according to the following experimental method. The test compound diluted with assay buffer (24 mM Tris-HCl (pH 7.5), 1 mM MgCl2, 0.35 mM KCl, 135 mM NaCl, 0.6 mM Glutathione, 0.01% Tween-20) was added to a 384-well plate by each 2 μL. Then, HDAC1 or HDAC6 enzyme solution diluted with assay buffer was added thereto by each 4 μL, and the plate was incubated at room temperature for 60 min. After incubated, HDAC substrate-Developer solution prepared according to Promega protocol attached to the assay kit was added to the 384-well plate by each 2 μL, and the enzyme reaction was started. After reacting at room temperature for 20 min, luminescence level was measured using plate reader Envision (PerkinElmer). The inhibitory activity of each compound was calculated as a relative activity value when luminescence level in wells without enzyme is considered as 100% inhibition.

HDAC6 enzyme = target: T3, HDAC6 enzyme (Homo sapiens, UniProt Q9UBN7); experiment: HDAC6 enzyme inhibitory assay (HDAC-Glo I/II Assay kit); settings: wells without enzyme = 100% inhibition; for inhibition at 1 µM: read-out: HDAC6 inhibitory rate (%) (1 μM)
T3 construct: transducing full length HDAC1 and HDAC6 genes into Sf-9 insect cells; GST; purchased SignalChem; host or cells: Sf-9 insect cells
T3 sequence (Q9UBN7 1-1215): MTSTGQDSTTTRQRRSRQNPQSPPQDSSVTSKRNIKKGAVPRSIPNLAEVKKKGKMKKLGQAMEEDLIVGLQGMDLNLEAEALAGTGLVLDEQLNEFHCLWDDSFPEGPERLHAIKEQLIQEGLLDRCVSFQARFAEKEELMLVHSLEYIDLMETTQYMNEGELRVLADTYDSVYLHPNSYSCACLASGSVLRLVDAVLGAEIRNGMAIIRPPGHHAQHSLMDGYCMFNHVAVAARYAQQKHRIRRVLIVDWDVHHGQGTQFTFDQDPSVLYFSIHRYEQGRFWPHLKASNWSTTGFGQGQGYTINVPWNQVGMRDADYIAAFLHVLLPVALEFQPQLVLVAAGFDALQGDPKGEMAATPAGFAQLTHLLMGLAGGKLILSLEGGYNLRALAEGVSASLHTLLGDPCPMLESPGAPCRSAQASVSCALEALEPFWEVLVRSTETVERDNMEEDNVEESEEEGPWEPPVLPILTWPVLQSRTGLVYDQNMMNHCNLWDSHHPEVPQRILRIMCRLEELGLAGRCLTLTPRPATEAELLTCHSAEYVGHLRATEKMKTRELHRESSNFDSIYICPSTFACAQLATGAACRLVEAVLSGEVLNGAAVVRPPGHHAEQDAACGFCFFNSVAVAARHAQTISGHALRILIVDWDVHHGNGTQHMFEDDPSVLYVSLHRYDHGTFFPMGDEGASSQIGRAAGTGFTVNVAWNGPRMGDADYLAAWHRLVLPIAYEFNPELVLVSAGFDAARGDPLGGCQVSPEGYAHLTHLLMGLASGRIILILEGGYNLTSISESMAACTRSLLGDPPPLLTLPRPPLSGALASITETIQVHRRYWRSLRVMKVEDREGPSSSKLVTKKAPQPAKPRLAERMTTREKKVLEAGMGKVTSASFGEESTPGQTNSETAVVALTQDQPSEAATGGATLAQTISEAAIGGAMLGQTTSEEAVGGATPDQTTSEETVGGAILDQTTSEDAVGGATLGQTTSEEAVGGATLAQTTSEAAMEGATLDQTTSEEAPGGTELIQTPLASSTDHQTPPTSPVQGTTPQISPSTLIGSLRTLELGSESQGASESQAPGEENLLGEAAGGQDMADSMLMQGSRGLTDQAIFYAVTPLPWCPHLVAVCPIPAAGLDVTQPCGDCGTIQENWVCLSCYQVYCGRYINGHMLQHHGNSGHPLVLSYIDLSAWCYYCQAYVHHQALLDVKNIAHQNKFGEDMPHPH
Procedure: as §1, §2

Q: What does the source list for `O=C(NCC1CCCCN1C(=O)Nc1ccc(-c2noc(C(F)(F)F)n2)cc1)c1ccccc1F` (stereo not drawn) [Example 4, 2-(((2-fluorobenzoyl)amino)methyl)-N-(4-(5-(trifluoromethyl)-1,2,4-oxadiazol-3-yl)phenyl)piperidine-1-carboxamide]?
A: inhibition at 1 µM (HDAC9 enzyme): 89%; inhibition at 1 µM (HDAC1 enzyme): 44%; inhibition at 1 µM (HDAC6 enzyme): 5%

Q: Which inhibition at 1 µM (HDAC9 enzyme) does the source give for `O=C(NCC1CCCCN1C(=O)Nc1ccc(-c2noc(C(F)(F)F)n2)cc1)c1ccccc1-c1ccccc1` (stereo not drawn) [Example 13, 2-(((biphenyl-2-ylcarbonyl)amino)methyl)-N-(4-(5-(trifluoromethyl)-1,2,4-oxadiazol-3-yl)phenyl)piperidine-1-carboxamide] here?
A: 82%

Q: What about the inhibition at 1 µM (HDAC1 enzyme) of the same compound?
A: 19%

Q: And the inhibition at 1 µM (HDAC6 enzyme)?
A: 9%

Q: For `O=C(NCC1CCCCN1C(=O)Nc1ccc(-c2noc(C(F)(F)F)n2)cc1)C1CCOCC1` (stereo not drawn) [Example 51, 2-(((tetrahydro-2H-pyran-4-ylcarbonyl)amino)methyl)-N-(4-(5-(trifluoromethyl)-1,2,4-oxadiazol-3-yl)phenyl)piperidine-1-carboxamide], which inhibition at 1 µM (HDAC9 enzyme) is on record?
A: 97%

Q: What about the inhibition at 1 µM (HDAC1 enzyme) of the same compound?
A: 73%

Q: And the inhibition at 1 µM (HDAC6 enzyme)?
A: 8%

Q: `O=C(NCC1COCCN1C(=O)Nc1ccc(-c2noc(C(F)(F)F)n2)cn1)c1ccccc1` (stereo not drawn) [Example 64, 3-((benzoylamino)methyl)-N-(5-(5-(trifluoromethyl)-1,2,4-oxadiazol-3-yl)pyridin-2-yl)morpholine-4-carboxamide] was tested. Which inhibition at 1 µM (HDAC9 enzyme) did it give?
A: 94%

Q: What about the inhibition at 1 µM (HDAC1 enzyme) of the same compound?
A: 85%

Q: What about the inhibition at 1 µM (HDAC6 enzyme) of the same compound?
A: 15%

Q: For `O=C(NCC1CCCCN1C(=O)Nc1ccc(-c2noc(C(F)(F)F)n2)cc1)c1ccccc1C(F)(F)F` (stereo not drawn) [Example 16, 2-(((2-(trifluoromethyl)benzoyl)amino)methyl)-N-(4-(5-(trifluoromethyl)-1,2,4-oxadiazol-3-yl)phenyl)piperidine-1-carboxamide], which inhibition at 1 µM (HDAC9 enzyme) is on record?
A: 57%

Q: What about the inhibition at 1 µM (HDAC1 enzyme) of the same compound?
A: -2%

Q: What about the inhibition at 1 µM (HDAC6 enzyme) of the same compound?
A: 1%

Q: For `CN(C)c1ccc(C(=O)NCC2CCCCN2C(=O)Nc2ccc(-c3noc(C(F)(F)F)n3)cc2)cc1` (stereo not drawn) [Example 29, 2-(((4-(dimethylamino)benzoyl)amino)methyl)-N-(4-(5-(trifluoromethyl)-1,2,4-oxadiazol-3-yl)phenyl)piperidine-1-carboxamide], which inhibition at 1 µM (HDAC9 enzyme) is on record?
A: 88%

Q: And the inhibition at 1 µM (HDAC1 enzyme)?
A: 1%

Q: What about the inhibition at 1 µM (HDAC6 enzyme) of the same compound?
A: 1%

Q: `O=C(NCC1CCCCN1C(=O)Nc1ccc(-c2noc(C(F)(F)F)n2)cc1)c1cc(Cl)cc(Cl)c1` (stereo not drawn) [Example 33, 2-(((3,5-dichlorobenzoyl)amino)methyl)-N-(4-(5-(trifluoromethyl)-1,2,4-oxadiazol-3-yl)phenyl)piperidine-1-carboxamide] was tested. Which inhibition at 1 µM (HDAC9 enzyme) did it give?
A: 48%

Q: What about the inhibition at 1 µM (HDAC1 enzyme) of the same compound?
A: -5%

Q: And the inhibition at 1 µM (HDAC6 enzyme)?
A: 0%

Q: For `COc1ccc(C(=O)NCC2CCCCN2C(=O)Nc2ccc(-c3noc(C(F)(F)F)n3)cc2)cc1` (stereo not drawn) [Example 25, 2-(((4-methoxybenzoyl)amino)methyl)-N-(4-(5-(trifluoromethyl)-1,2,4-oxadiazol-3-yl)phenyl)piperidine-1-carboxamide], which inhibition at 1 µM (HDAC9 enzyme) is on record?
A: 95%

Q: What about the inhibition at 1 µM (HDAC1 enzyme) of the same compound?
A: 12%

Q: And the inhibition at 1 µM (HDAC6 enzyme)?
A: 2%

Q: What does the source list for `COc1ccccc1C(=O)NCC1CCCCN1C(=O)Nc1ccc(-c2noc(C(F)(F)F)n2)cc1` (stereo not drawn) [Example 23]?
A: HDAC9 inhibitory rate (%) (1 μM) (HDAC9 enzyme): 86%; HDAC1 inhibitory rate (%) (1 μM) (HDAC1 enzyme): 41%; HDAC6 inhibitory rate (%) (1 μM) (HDAC6 enzyme): 4%

Q: For `O=C(CCc1ccccc1)NCC1CCCCN1C(=O)Nc1ccc(-c2noc(C(F)(F)F)n2)cc1` (stereo not drawn) [Example 47, 2-(((3-phenylpropanoyl)amino)methyl)-N-(4-(5-(trifluoromethyl)-1,2,4-oxadiazol-3-yl)phenyl)piperidine-1-carboxamide], which inhibition at 1 µM (HDAC9 enzyme) is on record?
A: 89%

Q: What about the inhibition at 1 µM (HDAC1 enzyme) of the same compound?
A: 68%

Q: What about the inhibition at 1 µM (HDAC6 enzyme) of the same compound?
A: 7%

Q: With `O=C(NCC1CCCCN1C(=O)Nc1ccc(-c2noc(C(F)(F)F)n2)cc1)c1ccc(C(F)(F)F)cc1` (stereo not drawn) [Example 18, 2-(((4-(trifluoromethyl)benzoyl)amino)methyl)-N-(4-(5-(trifluoromethyl)-1,2,4-oxadiazol-3-yl)phenyl)piperidine-1-carboxamide] as the compound, how does the inhibition at 1 µM (HDAC9 enzyme) read?
A: 39%

Q: What about the inhibition at 1 µM (HDAC1 enzyme) of the same compound?
A: -7%

Q: And the inhibition at 1 µM (HDAC6 enzyme)?
A: 2%

Q: How did the inhibition at 1 µM (HDAC9 enzyme) turn out when `Cn1cnc(C(=O)NCC2CCCCN2C(=O)Nc2ccc(-c3noc(C(F)(F)F)n3)cc2)c1` (stereo not drawn) [Example 40, 2-((((1-methyl-1H-imidazol-4-yl)carbonyl)amino)methyl)-N-(4-(5-(trifluoromethyl)-1,2,4-oxadiazol-3-yl)phenyl)piperidine-1-carboxamide] was run?
A: 76%

Q: What about the inhibition at 1 µM (HDAC1 enzyme) of the same compound?
A: 11%

Q: And the inhibition at 1 µM (HDAC6 enzyme)?
A: 3%

Q: How did the inhibition at 1 µM (HDAC9 enzyme) turn out when `N#Cc1ccccc1C(=O)NCC1CCCCN1C(=O)Nc1ccc(-c2noc(C(F)(F)F)n2)cc1` (stereo not drawn) [Example 19, 2-(((2-cyanobenzoyl)amino)methyl)-N-(4-(5-(trifluoromethyl)-1,2,4-oxadiazol-3-yl)phenyl)piperidine-1-carboxamide] was run?
A: 72%

Q: And the inhibition at 1 µM (HDAC1 enzyme)?
A: 15%

Q: What about the inhibition at 1 µM (HDAC6 enzyme) of the same compound?
A: 2%

Q: With `CC(C)(C)OC(=O)NCC1CCCCN1C(=O)Nc1ccc(-c2noc(C(F)(F)F)n2)cc1` (stereo not drawn) [Example 3, tert-butyl ((1-((4-(5-(trifluoromethyl)-1,2,4-oxadiazol-3-yl)phenyl)carbamoyl)piperidin-2-yl)methyl) carbamate] as the compound, how does the “HDAC9 inhibitory rate (%) (1 μM)” value (HDAC9 enzyme) read?
A: 87%

Q: What about the “HDAC1 inhibitory rate (%) (1 μM)” value (HDAC1 enzyme) of the same compound?
A: 51%

Q: And the “HDAC6 inhibitory rate (%) (1 μM)” value (HDAC6 enzyme)?
A: 5%

Q: Which results are given for `Cn1nc(C(=O)NCC2CCCCN2C(=O)Nc2ccc(-c3noc(C(F)(F)F)n3)cc2)cc1C(F)(F)F` (stereo not drawn) [Example 59, 2-((((1-methyl-5-(trifluoromethyl)-1H-pyrazol-3-yl)carbonyl)amino)methyl)-N-(4-(5-(trifluoromethyl)-1,2,4-oxadiazol-3-yl)phenyl)piperidine-1-carboxamide]?
A: inhibition at 1 µM (HDAC9 enzyme): 63%; inhibition at 1 µM (HDAC1 enzyme): 10%; inhibition at 1 µM (HDAC6 enzyme): 1%

Q: How did the inhibition at 1 µM (HDAC9 enzyme) turn out when `O=C(NCC1CCCCN1C(=O)Nc1ccc(-c2noc(C(F)(F)F)n2)cc1)c1ccc(Cl)c(Cl)c1` (stereo not drawn) [Example 32, 2-(((3,4-dichlorobenzoyl)amino)methyl)-N-(4-(5-(trifluoromethyl)-1,2,4-oxadiazol-3-yl)phenyl)piperidine-1-carboxamide] was run?
A: 62%

Q: And the inhibition at 1 µM (HDAC1 enzyme)?
A: -10%

Q: What about the inhibition at 1 µM (HDAC6 enzyme) of the same compound?
A: 0%
